Where a name gives a salt, the structure may show the parent alone.
These molecules were tested against T1, MASP-2 (CCP1-CCP2-SP) (Homo sapiens, UniProt O00187) (assay: Enzymatic Assay for MASP-2). Settings: fluorogenic substrate based on C2 cleavage site, room temperature, 20 mM HEPES pH 7.4.
T1 construct: 15 μL of Enzyme MASP-2 (CCP1-CCP2-SP) in Assay Buffer
Format: biochemical
Description: Enzymatic Assay for MASP-2
The MASP-2 assay utilizes a fluorogenic substrate, based on the cleavage site for its natural substrate C2. The assay is run at room temperature in an assay buffer containing 20 mM HEPES, pH 7.4, 140 mM NaCl and 0.1% Tween 20. Assay parameters are adjusted such that the assay is linear with respect to time, enzyme, and substrate concentrations. Under these optimized assays conditions, IC50 values are equivalent to Ki values, except in a few cases of “tight binding” inhibitors. Cases of “tight binding” or possible “slow binding” inhibitors are handled by the methods described in Copeland R. A. (2013) Evaluation of Enzyme Inhibitors in Drug Discovery. 2nd Ed., John Wiley and Sons, Inc., Chapters 5-7.
The MASP-2 assay protocol is carried out as follows. Test compounds are serially diluted in DMSO and then 100 nL of each dilution is transferred to the assay plate(s). 10 μL of Assay Buffer is added, followed by 15 μL of Enzyme MASP-2 (CCP1-CCP2-SP) in Assay Buffer. 15 μL of Substrate in Assay Buffer is then added and mixed to start the reactions. After 20 min at room temperature, 15 μL of a stop solution (0.1 M acetic acid) is added, mixed and the plates are read on a SpectraMax i3x Microplate Reader and exported as Excel files. Each assay plate included a “no inhibitor” (DMSO Only) control, a “no enzyme” control and a reference inhibitor control. % Activity values=100*(average test comp. fluorescence−average “no enzyme” fluorescence)/(average “DMSO only” fluorescence−average “no enzyme” fluorescence). IC50 and Ki values are very reproducible, falling well within ±2-fold.

T1 sequence (O00187 445-686 limits assumed): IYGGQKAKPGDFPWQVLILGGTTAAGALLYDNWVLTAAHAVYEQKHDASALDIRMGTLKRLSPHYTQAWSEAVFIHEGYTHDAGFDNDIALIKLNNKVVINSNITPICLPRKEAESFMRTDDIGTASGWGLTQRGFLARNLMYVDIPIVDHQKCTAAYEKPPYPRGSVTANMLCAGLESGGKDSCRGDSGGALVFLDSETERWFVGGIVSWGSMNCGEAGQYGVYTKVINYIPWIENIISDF
T1 sequence (O00187 298-444 partner limits assumed): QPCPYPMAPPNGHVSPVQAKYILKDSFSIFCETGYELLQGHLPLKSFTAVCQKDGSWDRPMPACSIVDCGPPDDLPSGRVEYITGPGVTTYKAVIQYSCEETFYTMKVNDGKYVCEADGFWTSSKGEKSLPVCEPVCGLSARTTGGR

SMILES | Ki [nM]
O=C(Cn1c(-c2ccccc2)cnc(NCC2(c3cccc(F)c3)CC2)c1=O)NCc1cc2cnccc2[nH]1 [Compound 64, N-((1H-Pyrrolo[3,2-c]pyridin-2-yl)methyl)-2-(3-(((1-(3-fluorophenyl)cyclopropyl)methyl)amino)-2-oxo-6-phenylpyrazin-1(2H)-yl)acetamide] | < 500
Cn1cc(-c2cnc(NCC3(c4ccc(Cl)cc4)CC3)c(=O)n2CC(=O)NCc2cc3cnccc3[nH]2)cn1 [Compound 65, N-((1H-Pyrrolo[3,2-c]Pyridin-2-yl)Methyl)-2-(3-(((1-(4-Chlorophenyl)Cyclopropyl)Methyl)Amino)-6-(1-Methyl-1H-Pyrazol-4-yl)-2-Oxopyrazin-1(2H)-yl)Acetamide Trifluoroacetate] | < 500
O=C(Cn1c(-c2ccccc2)cnc(NC2(c3ccccc3)CC2)c1=O)NCc1cc2cnccc2[nH]1 [Compound 66, N-((1H-Pyrrolo[3,2-c]pyridin-2-yl)methyl)-2-(2-oxo-6-phenyl-3-((1-phenylcyclopropyl)amino)pyrazin-1(2H)-yl)acetamide trifluoroacetate] | < 500
Cc1cc2[nH]c(CNC(=O)Cn3c(-c4ccccc4)cnc(NCCc4ccccc4)c3=O)cc2cn1 [Compound 67, N-((6-Methyl-1H-Pyrrolo[3,2-c]Pyridin-2-yl)Methyl)-2-(2-Oxo-3-(Phenethylamino)-6-Phenylpyrazin-1(2H)-yl)Acetamide Trifluoroacetate] | < 500
COc1cccc(C2(CNc3ncc(-c4ccccc4)n(CC(=O)NCc4cc5cnccc5[nH]4)c3=O)CC2)c1 [Compound 68, N-((1H-Pyrrolo[3,2-c]pyridin-2-yl)methyl)-2-(3-(((1-(3-methoxyphenyl)cyclopropyl)methyl)amino)-2-oxo-6-phenylpyrazin-1(2H)-yl)acetamide trifluoroacetate] | < 500
O=C(Cn1c(-c2ccccc2)cnc(NCC2(c3ccc(Cl)cc3)CC2)c1=O)NCc1cnc2c(c1)CNC2 [Compound 69, 2-(3-(((1-(4-Chlorophenyl)Cyclopropyl)Methyl)Amino)-2-Oxo-6-Phenylpyrazin-1(2H)-yl)-N-((6,7-Dihydro-5H-Pyrrolo[3,4-5]Pyridin-3-yl)Methyl)Acetamide Trifluoroacetate] | < 500
O=C(Cn1c(-c2ccccc2)cnc(NCc2ccc(F)c(F)c2)c1=O)NCc1cc2cnccc2[nH]1 [Compound 70, N-((1H-Pyrrolo[3,2-c]pyridin-2-yl)methyl)-2-(3-((3,4-difluorobenzyl)amino)-2-oxo-6-phenylpyrazin-1(2H)-yl)acetamide trifluoroacetate] | < 500
O=C(Cn1c(-c2ccccc2)cnc(NCC2(c3cccc(Cl)c3)CC2)c1=O)NCc1cc2cnccc2[nH]1 [Compound 71, N-((1H-Pyrrolo[3,2-c]pyridin-2-yl)methyl)-2-(3-(((1-(3-chlorophenyl)cyclopropyl)methyl)amino)-2-oxo-6-phenylpyrazin-1(2H)-yl)acetamide trifluoroacetate] | < 500
Cc1nccc2[nH]c(CNC(=O)Cn3c(-c4ccccc4)cnc(NCCc4ccccc4)c3=O)cc12 [Compound 72, trifluoroacetate] | < 500
O=C(Cn1c(-c2ccccc2)cnc(NCc2ccc(Cl)cc2)c1=O)NCc1cc2cnccc2[nH]1 [Compound 73, N-((1H-Pyrrolo[3,2-c]pyridin-2-yl)methyl)-2-(3-((4-chlorobenzyl)amino)-2-oxo-6-phenylpyrazin-1(2H)-yl)acetamide trifluoroacetate] | < 500
O=C(Cn1c(-c2ccccc2)cnc(NC2(c3ccc(F)c(F)c3)CC2)c1=O)NCc1cc2cnccc2[nH]1 [Compound 74, N-((1H-Pyrrolo[3,2-c]pyridin-2-yl)methyl)-2-(3-((1-(3,4-difluorophenyl)cyclopropyl)amino)-2-oxo-6-phenylpyrazin-1(2H)-yl)acetamide trifluoroacetate] | < 500
O=C(Cn1c(-c2ccccc2)cnc(NCc2cccc(Cl)c2)c1=O)NCc1cc2cnccc2[nH]1 [Compound 75, N-((1H-Pyrrolo[3,2-c]pyridin-2-yl)methyl)-2-(3-((3-chlorobenzyl)amino)-2-oxo-6-phenylpyrazin-1(2H)-yl)acetamide trifluoroacetate] | < 500
Cc1cc2[nH]c(CNC(=O)Cn3c(-c4ccccc4)cnc(NC4(c5ccccc5)CC4)c3=O)cc2cn1 [Compound 76, N-((6-Methyl-1H-pyrrolo[3,2-c]pyridin-2-yl)methyl)-2-(2-oxo-6-phenyl-3-((1-phenylcyclopropyl)amino)pyrazin-1(2H)-yl)acetamide trifluoroacetate] | < 500
COc1ccc(CNc2ncc(-c3ccccc3)n(CC(=O)NCc3cc4cnc(C)cc4[nH]3)c2=O)cc1 [Compound 77, 2-(3-((4-Methoxybenzyl)amino)-2-oxo-6-phenylpyrazin-1(2H)-yl)-N-((6-methyl-1H-pyrrolo[3,2-c]pyridin-2-yl)methyl)acetamide trifluoroacetate] | < 500
Cn1cc(-c2cnc(NCCc3ccccc3)c(=O)n2CC(=O)NCc2cc3c(s2)CCNC3)cn1 [Compound 78, 2-(6-(1-Methyl-1H-Pyrazol-4-yl)-2-Oxo-3-(Phenethylamino)Pyrazin-1(2H)-yl)-N-((4,5,6,7-Tetrahydrothieno[3,2-c]Pyridin-2-yl)Methyl)Acetamide] | 500 to 2500
Cn1cc(-c2cnc(NCCc3ccccc3)c(=O)n2CC(=O)NCc2cc3c(s2)CNCC3)cn1 [Compound 79] | < 500
Cn1cc(-c2cnc(NCCc3ccccc3)c(=O)n2CC(=O)NCc2ccc3c(c2)CCNC3)cn1 [Compound 80, 2-(6-(1-Methyl-1H-Pyrazol-4-yl)-2-Oxo-3-(Phenethylamino)Pyrazin-1(2H)-yl)-N-((1,2,3,4-Tetrahydroisoquinolin-6-yl)Methyl)Acetamide] | 2500 to 10000
Cn1cc(-c2cnc(NCCc3ccccc3)c(=O)n2CC(=O)NCc2cnc3[nH]cc(Cl)c3c2)cn1 [Compound 81, N-((3-Chloro-1H-Pyrrolo[2,3-b]Pyridin-5-yl)Methyl)-2-(6-(1-Methyl-1H-Pyrazol-4-yl)-2-Oxo-3-(Phenethylamino)Pyrazin-1(2H)-yl)Acetamide] | 2500 to 10000
Cn1cc(-c2cnc(NCCc3ccccc3)c(=O)n2CC(=O)NCc2cnc3scc(Cl)c3c2)cn1 [Compound 82] | 2500 to 10000
O=C(Cn1c(-c2ccccc2)cnc(NCCc2ccccc2)c1=O)NCc1cc2c(s1)CNCC2 [Compound 83, 2-(2-Oxo-3-(Phenethylamino)-6-Phenylpyrazin-1(2H)-yl)-N-((4,5,6,7-Tetrahydrothieno[2,3-c]Pyridin-2-yl)Methyl)Acetamide] | < 500
Cc1nc(N)ccc1CNC(=O)Cn1c(-c2ccnc(N)c2)cnc(NCCc2ccccc2)c1=O [Compound 84, N-((6-Amino-2-Methylpyridin-3-yl)Methyl)-2-(6-(2-Aminopyridin-4-yl)-2-Oxo-3-(Phenethylamino)Pyrazin-1(2H)-yl)Acetamide] | < 500
Cc1nc(N)ccc1CNC(=O)Cn1c(-c2cccc3cc[nH]c23)cnc(NCCc2ccccc2)c1=O [Compound 85] | < 500
O=C(Cn1c(-c2ccccc2F)cnc(NCCc2ccccc2)c1=O)NCc1cc2cnccc2[nH]1 [Compound 86, N-((1H-Pyrrolo[3,2-c]Pyridin-2-yl)Methyl)-2-(6-(2-Fluorophenyl)-2-Oxo-3-(Phenethylamino)Pyrazin-1(2H)-yl)Acetamide Trifluoroacetate] | < 500
Cc1ccccc1-c1cnc(NCCc2ccccc2)c(=O)n1CC(=O)NCc1cc2cnccc2[nH]1 [Compound 87, N-((1H-Pyrrolo[3,2-c]pyridin-2-yl)methyl)-2-(2-oxo-3-(phenethylamino)-6-(o-tolyl)pyrazin-1(2H)-yl)acetamide trifluoroacetate] | < 500
O=C(Cn1c(-c2cccc(CO)c2)cnc(NCCc2ccccc2)c1=O)NCc1cc2cnccc2[nH]1 [Compound 88, N-((1H-Pyrrolo[3,2-c]pyridin-2-yl)methyl)-2-(6-(3-(hydroxymethyl)phenyl)-2-oxo-3-(phenethylamino)pyrazin-1(2H)-yl)acetamide trifluoroacetate] | < 500
O=C(Cn1c(-c2ccc(Cl)s2)cnc(NCCc2ccccc2)c1=O)NCc1cc2cnccc2[nH]1 [Compound 89, N-((1H-Pyrrolo[3,2-c]Pyridin-2-yl)Methyl)-2-(6-(5-Chlorothiophen-2-yl)-2-Oxo-3-(Phenethylamino)Pyrazin-1(2H)-yl)Acetamide] | < 500
O=C(Cn1c(-c2cnn(C3COC3)c2)cnc(NCCc2ccccc2)c1=O)NCc1cc2cnccc2[nH]1 [Compound 90, N-((1H-pyrrolo[3,2-c]pyridin-2-yl)methyl)-2-(6-(1-(oxetan-3-yl)-1H-pyrazol-4-yl)-2-oxo-3-(phenethylamino)pyrazin-1(2H)-yl)acetamide trifluoroacetate] | < 500
C=C(C)c1cccc(-c2cnc(NCCc3ccccc3)c(=O)n2CC(=O)NCc2cc3cnccc3[nH]2)c1 [Compound 91, N-((1H-Pyrrolo[3,2-c]Pyridin-2-yl)Methyl)-2-(2-Oxo-3-(Phenethylamino)-6-(3-(Prop-1-en-2-yl)Phenyl)Pyrazin-1(2H)-yl)Acetamide] | < 500
